Laboratory results as given in patent US20230027929A1, “MrgprX2 Antagonists and Uses Thereof” (Dermira, Inc., priority 2019, published 2023).

Biological target: T1, hMrgpMRGPRX2 (Homo sapiens, UniProt Q96LB1)
T1 construct: expressed in transfected cells
T1 sequence (Q96LB1 1-330): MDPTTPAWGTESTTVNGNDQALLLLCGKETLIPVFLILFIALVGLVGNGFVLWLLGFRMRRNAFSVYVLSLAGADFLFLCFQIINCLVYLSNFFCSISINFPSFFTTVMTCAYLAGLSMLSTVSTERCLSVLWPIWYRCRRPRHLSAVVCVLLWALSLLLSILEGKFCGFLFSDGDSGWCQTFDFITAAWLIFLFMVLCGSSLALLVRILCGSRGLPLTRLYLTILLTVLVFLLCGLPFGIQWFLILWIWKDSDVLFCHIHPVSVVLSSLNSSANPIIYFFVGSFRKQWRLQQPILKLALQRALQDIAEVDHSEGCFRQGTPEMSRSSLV
Assay: FLIPR intracellular calcium mobilization, antagonist activity in recombinant hMrgpMRGPRX2 expressing cells
Format: cell-based
Conditions: read-out: Human MrgprX2 Antagonist pIC50 (converted)
Description: Potent and selective hMrgpMRGPRX2 compounds have been generated from compounds identified during a high throughput screening (HTS) campaign and followed up with cycles of structure activity based medicinal chemistry efforts. These compounds were characterized in recombinant hMrgpMRGPRX2 expressing cells for their antagonist activity and the potency was confirmed in the human mast cell line LAD-2, where the target is endogenously expressed. The assays used to determine potencies are functional read-out looking at intracellular calcium mobilization using the FLIPR™ technology. In these FLIPR assays, we test the identified compounds using recombinant cellular systems expressing mouse MrgprB2, mouse MrgprA1, gerbil MrgpMRGPRX2 orthologue, Chinese hamster MrgpMRGPRX2 orthologue and cynomolgus monkey MrgpMRGPRX2 orthologue, respectively for orthologue activity.

Row | Structure (SMILES) | IC50
1 | C[C@@H]1C[C@H]1C(=O)Nc1ccc(Oc2ccc(F)c(F)c2)cn1 (racemic) [Compound E048.1] | 79.4 nM
2 | CC1(C)C[C@H]1C(=O)Nc1ccc(Oc2ccc(F)c(F)c2)cn1 (single isomer, unassigned) [Compound E078] | 7.94 nM
3 | CC1(C)CC1C(=O)Nc1cnc(-c2cc(F)cc(F)c2)cn1 (single isomer, unassigned) [Compound E231, N-[5-(3,5-difluorophenyl)pyrazin-2-yl]-2,2-dimethyl-cyclopropanecarboxamide] | 102 nM
4 | CCN(C[C@@H](O)C(F)(F)F)C(=O)Nc1ccc(Oc2ccc(F)cc2F)cn1 (single isomer, unassigned) [Compound E267] | 28.2 nM
5 | CC(C)(C#N)C(=O)Nc1ccc(Oc2cccc(F)c2)cn1 [Compound E001, 2-cyano-N-[5-(3-fluorophenoxy)-2-pyridyl]-2-methyl-propanamide] | 398 nM
6 | CC(C)C(=O)Nc1ccc(Oc2ccccc2)cn1 [Compound E002] | 501 nM
7 | CC(C)C(=O)Nc1ccc(Oc2ccc(F)cc2)cn1 [Compound E003] | 316 nM
8 | CC(C)C(=O)Nc1ccc(Oc2cccc(F)c2)cn1 [Compound E004] | 63.1 nM
9 | CC(C)C(=O)Nc1ccc(Oc2ccccc2F)cn1 [Compound E005] | 79.4 nM
10 | CC1(C(=O)Nc2ccc(Oc3cccc(F)c3)cn2)CCOCC1 [Compound E006] | 3160 nM
11 | CC1(C(=O)Nc2ccc(Oc3ccccc3F)cn2)CCOCC1 [Compound E007] | 2510 nM
12 | CC(C)C(=O)Nc1ccc(Oc2cc(F)cc(F)c2)cn1 [Compound E008] | 6.31 nM
13 | CC(C)C(=O)Nc1ccc(Oc2cccc(F)c2F)cn1 [Compound E009] | 79.4 nM
14 | CC(C)C(=O)Nc1ccc(Oc2ccc(F)c(F)c2)cn1 [Compound E010] | 39.8 nM
15 | CC1(C(=O)Nc2ccc(Oc3cccc(F)c3)cn2)CCOC1 (stereo not shown) [Compound E011] | 6310 nM
16 | O=C(Nc1ccc(Oc2cccc(F)c2)cn1)C1(C(F)(F)F)CC1 [Compound E012] | 398 nM
17 | CC(O)(C(=O)Nc1ccc(Oc2cccc(F)c2)cn1)C(F)(F)F (stereo not shown) [Compound E013] | 794 nM
18 | CC(C)(CO)C(=O)Nc1ccc(Oc2cccc(F)c2)cn1 [Compound E014] | 3980 nM
19 | CC1(C(=O)Nc2ccc(Oc3cccc(Cl)c3)cn2)CCOCC1 [Compound E015] | 25.1 nM
20 | CC(C)C(=O)Nc1ccc(Oc2cccc(Cl)c2)cn1 [Compound E016] | 25.1 nM
21 | O=C(Nc1ccc(Oc2cc(F)cc(F)c2)cn1)C1CC1 [Compound E017] | 79.4 nM
22 | CC(C)C(=O)Nc1ccc(Oc2cccc(C#N)c2)cn1 [Compound E018] | 6310 nM
23 | CC(C)C(=O)Nc1ccc(Oc2ccc(F)c(C#N)c2)cn1 [Compound E019] | 7940 nM
24 | N#Cc1cc(F)cc(Oc2ccc(NC(=O)C3CC3)nc2)c1 [Compound E020] | 10000 nM
25 | CC(C)C(=O)Nc1ccc(Oc2cc(F)cc(C#N)c2)cn1 [Compound E021] | 1580 nM
26 | CC(C)C(=O)Nc1ccc(Oc2ccnc(F)c2)cn1 [Compound E022] | 10000 nM
27 | N#CC1(C(=O)Nc2ccc(Oc3cc(F)cc(F)c3)cn2)CC1 [Compound E023] | 3160 nM

Row | Structure (SMILES) | IC50
28 | O=C(Nc1ccc(Oc2ccc(F)c(F)c2)cn1)C1CCOCC1 [Compound E024] | 2000 nM
29 | CC1(C)C(C(=O)Nc2ccc(Oc3ccc(F)c(F)c3)cn2)C1(C)C [Compound E025] | 2.51 nM
30 | CC(C)(C#N)C(=O)Nc1ccc(Oc2ccc(F)c(F)c2)cn1 [Compound E026] | 2000 nM
31 | CC1(C(=O)Nc2ccc(Oc3ccc(F)c(F)c3)cn2)CCOCC1 [Compound E027] | 3160 nM
32 | O=C(Nc1ccc(Oc2ccc(F)c(F)c2)cn1)C1CC1(F)F (stereo not shown) [Compound E028] | 200 nM
33 | CC1(C)CC1C(=O)Nc1ccc(Oc2ccc(F)c(F)c2)cn1 (stereo not shown) [Compound E029] | 3.98 nM
34 | O=C(CC1CCOCC1)Nc1ccc(Oc2ccc(F)c(F)c2)cn1 [Compound E030] | 7940 nM
35 | O=C(Nc1ccc(Oc2ccc(F)c(F)c2)cn1)C1CCCC1 [Compound E031] | 63.1 nM
36 | CC1(C(=O)Nc2ccc(Oc3ccc(F)c(F)c3)cn2)CC1 [Compound E032] | 200 nM
37 | CC(C)(C)C(=O)Nc1ccc(Oc2ccc(F)c(F)c2)cn1 [Compound E033] | 79.4 nM
38 | O=C(Nc1ccc(Oc2ccc(F)c(F)c2)cn1)C1CC1 [Compound E034] | 200 nM
39 | CC(C)(F)C(=O)Nc1ccc(Oc2ccc(F)c(F)c2)cn1 [Compound E035] | 398 nM
40 | CC1(C(=O)Nc2ccc(Oc3ccc(F)c(F)c3)cn2)CCOC1 (stereo not shown) [Compound E036] | 5010 nM
41 | O=C(Nc1ccc(Oc2ccc(F)c(F)c2)cn1)C1CCOC1 (stereo not shown) [Compound E037] | 6310 nM
42 | COC(C)(C)C(=O)Nc1ccc(Oc2ccc(F)c(F)c2)cn1 [Compound E038] | 1000 nM
43 | CC(C)(CO)C(=O)Nc1ccc(Oc2ccc(F)c(F)c2)cn1 [Compound E039] | 3980 nM
44 | COCC(C)(C)C(=O)Nc1ccc(Oc2ccc(F)c(F)c2)cn1 [Compound E040] | 501 nM
45 | CC1(C)CC1C(=O)Nc1ccc(Oc2cc(F)cc(C#N)c2)cn1 (stereo not shown) [Compound E041] | 158 nM
46 | CC1(C)C(C(=O)Nc2ccc(Oc3cc(F)cc(C#N)c3)cn2)C1(C)C [Compound E042] | 3.16 nM
47 | CC1(C)C[C@@H]1C(=O)Nc1ccc(Oc2ccc(F)c(F)c2)cn1 [Compound E043] | 3.98 nM
48 | O=C(Nc1ccc(Oc2ccc(F)c(F)c2)cn1)C1CC12CC2 (stereo not shown) [Compound E044] | 12.6 nM
49 | O=C(Nc1ccc(Oc2ccc(F)c(F)c2)cn1)[C@H]1C[C@H]1C(F)(F)F [Compound E045] | 20 nM
50 | O=C(CC1CC1)Nc1ccc(Oc2ccc(F)c(F)c2)cn1 [Compound E046] | 398 nM
51 | N#C[C@@H]1C[C@@H]1C(=O)Nc1ccc(Oc2ccc(F)c(F)c2)cn1 [Compound E047] | 3160 nM
52 | C[C@@H]1C[C@@H]1C(=O)Nc1ccc(Oc2ccc(F)c(F)c2)cn1 [Compound E048] | 15.8 nM
53 | O=C(Nc1ccc(Oc2ccc(F)c(F)c2)cn1)[C@H]1C[C@@H]1C(F)(F)F [Compound E049] | 25.1 nM
54 | N#C[C@H]1C[C@@H]1C(=O)Nc1ccc(Oc2ccc(F)c(F)c2)cn1 [Compound E050] | 398 nM

Row | Structure (SMILES) | IC50
55 | CC(C)C(=O)Nc1ccc(Oc2cncc(F)c2)cn1 [Compound E051] | 3980 nM
56 | CC1(C)CC1C(=O)Nc1ccc(Oc2cncc(F)c2)cn1 (stereo not shown) [Compound E052] | 501 nM
57 | Cc1nc(NC(=O)C2CC2(C)C)ccc1Oc1ccc(F)c(F)c1 (stereo not shown) [Compound E054] | 158 nM
58 | O=C(Nc1ccc(Oc2ccc(F)c(F)c2)cn1)[C@@H]1CCCO1 [Compound E055] | 6310 nM
59 | CC1(C)C(C(=O)Nc2ccc(Oc3ccc(F)nc3)cn2)C1(C)C [Compound E056] | 5.01 nM
60 | CC1(C)CC1C(=O)Nc1ccc(Oc2ccc(C#N)cc2)cn1 (stereo not shown) [Compound E057] | 1260 nM
61 | CC1(C)C(C(=O)Nc2ccc(Oc3ccc(C#N)cc3)cn2)C1(C)C [Compound E058] | 31.6 nM
62 | CC1(C)CC(C(=O)Nc2ccc(Oc3ccc(F)c(F)c3)cn2)C1 [Compound E059] | 200 nM
63 | CC1(C)C(C(=O)Nc2ccc(Oc3ccnc(F)c3)cn2)C1(C)C [Compound E060] | 3.16 nM
64 | CC1(C)C(C(=O)Nc2ccc(Oc3ccc(C#N)cc3F)cn2)C1(C)C [Compound E061] | 20 nM
65 | CC1(C)CCC1C(=O)Nc1ccc(Oc2ccc(F)c(F)c2)cn1 (stereo not shown) [Compound E062] | 10 nM
66 | CC1(C)C(C(=O)Nc2ccc(Oc3ccc(C#N)nc3)cn2)C1(C)C [Compound E063] | 1260 nM
67 | CC1(C)C(C(=O)Nc2ccc(Oc3ccnc(C#N)c3)cn2)C1(C)C [Compound E065] | 355 nM
68 | CC1(C)C(C(=O)Nc2ccc(Oc3cccnc3)cn2)C1(C)C [Compound E066] | 30.9 nM
69 | CC1(C)OCCC1C(=O)Nc1ccc(Oc2ccc(F)c(F)c2)cn1 (stereo not shown) [Compound E068] | 263 nM
70 | CC(C)(C#N)CC(=O)Nc1ccc(Oc2ccc(F)c(F)c2)cn1 [Compound E069] | 1910 nM
71 | CC1(C)C(C(=O)Nc2ccc(N3CCC(O)C3)cn2)C1(C)C (stereo not shown) [Compound E070] | 1050 nM
72 | COCCOc1ccc(NC(=O)C2C(C)(C)C2(C)C)nc1 [Compound E071] | 1100 nM
73 | CC1(C)CC1C(=O)Nc1ccc(Oc2ccnc(F)c2)cn1 (stereo not shown) [Compound E072] | 1910 nM
74 | Cn1cc(Oc2ccc(NC(=O)C3C(C)(C)C3(C)C)nc2)cn1 [Compound E073] | 3.63 nM
75 | CC1(C)C(C(=O)Nc2ccc(Oc3cn[nH]c3)cn2)C1(C)C [Compound E074] | 257 nM
76 | CC1(C)C(C(=O)Nc2ccc(Oc3cc(F)cc(C(N)=O)c3)cn2)C1(C)C [Compound E075] | 501 nM
77 | CC1(C)C(C(=O)Nc2ccc(Oc3ccc(C(N)=O)nc3)cn2)C1(C)C [Compound E076] | 1260 nM
78 | CNc1ccc(NC(=O)C2C(C)(C)C2(C)C)nc1 [Compound E079, 2,2,3,3-tetramethyl-N-[5-(methylamino)-2-pyridyl]cyclopropanecarboxamide] | 1660 nM
79 | CC(C)(O)COc1ccc(NC(=O)C2C(C)(C)C2(C)C)nc1 [Compound E080, N-[5-(2-hydroxy-2-methyl-propoxy)-2-pyridyl]-2,2,3,3-tetramethyl-cyclopropanecarboxamide] | 4370 nM
